Assay results published in patent US6441195B1, “Substituted sulphonylamino(thio) carbonyl compounds” (Bayer Aktiengesellschaft, priority 1995, dated 2002).

Columns and labels:
Assay type in all cases: in vivo
weeds [1] = test: Post-emergence test (greenhouse), activity against weeds; details: in words
Method: (§1) Solvent: 5 parts by weight of acetone
(§2) Emulsifier: 1 part by weight of alkylaryl polyglycol ether
(§3) To produce a suitable preparation of active compound, 1 part by weight of active compound is mixed with the stated amount of solvent, the stated amount of emulsifier is added and the concentrate is diluted with water to the desired concentration.
(§4) Test plants which have a height of 5-15 cm are sprayed with the preparation of the active compound in such a way as to apply the particular amounts of active compound desired per unit area. The concentration of the spray liquor is chosen so that the particular amounts of active compound desired are applied in 2000 l of water/ha.
(§5) After three weeks, the degree of damage to the plants is rated in % damage in comparison to the development of the untreated control.
(§6) 0%=no action (like untreated control)

Poa = test: Pre-emergence test/Greenhouse, Poa; details: after three weeks
Outline: (§7)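 Percent damage relative to untreated control plants, scored three weeks after treatment, is the read-out (0% meaning no effect). Treatment consisted of watering the soil with an emulsified aqueous preparation roughly 24 h after seeds were sown, at constant water volume per area.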

Echinochloa = test: Post-emergence test/greenhouse, Echinochloa; details: greenhouse, after three weeks
Method: as §1, §2, §3, §4, §5, §6

Ambrosia = test: Pre-emergence test/Greenhouse, Ambrosia; details: after three weeks
Outline: as §7

Gallium = test: Post-emergence test/greenhouse, Gallium; details: greenhouse, after three weeks
Method: as §1, §2, §3, §4, §5, §6

Lolium [2] = test: Pre-emergence test/Greenhouse, Lolium; details: after three weeks
Outline: as §7

Sorghum [3] = test: Post-emergence test/greenhouse, Sorghum; details: greenhouse, after three weeks
Method: as §1, §2, §3, §4, §5, §6

Sorghum [4] = test: Pre-emergence test/Greenhouse, Sorghum; details: after three weeks
Outline: as §7

Solanum = test: Pre-emergence test/Greenhouse, Solanum; details: after three weeks
Outline: as §7

Lolium [5] = test: Post-emergence test/greenhouse, Lolium; details: greenhouse, after three weeks
Method: as §1, §2, §3, §4, §5, §6

Amaranthus = test: Post-emergence test/greenhouse, Amaranthus; details: greenhouse, after three weeks
Method: as §1, §2, §3, §4, §5, §6

Matricaria [6] = test: Pre-emergence test/Greenhouse, Matricaria; details: after three weeks
Outline: as §7

Matricaria [7] = test: Post-emergence test/greenhouse, Matricaria; details: greenhouse, after three weeks
Method: as §1, §2, §3, §4, §5, §6

Digitaria = test: Post-emergence test/greenhouse, Digitaria; details: greenhouse, after three weeks
Method: as §1, §2, §3, §4, §5, §6

weeds [8] = test: Pre-emergence test (greenhouse), activity against weeds; details: in words
Outline: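 Compound formulated in acetone with alkylaryl polyglycol ether emulsifier, diluted in water, and watered onto soil about 24 h after sowing, dosed by application rate per unit area. Damage rated after three weeks as % versus untreated control (0% = no action).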

Stellaria = test: Post-emergence test/greenhouse, Stellaria; details: greenhouse, after three weeks
Method: as §1, §2, §3, §4, §5, §6

Maize [9] = test: Pre-emergence test/Greenhouse, Maize; details: in vivo
Outline: as §7

Soya beans = test: Pre-emergence test/Greenhouse, Soya beans; details: in vivo
Outline: as §7

Maize [10] = test: Post-emergence test/greenhouse, Maize; details: greenhouse, 60 g of ai./ha, after three weeks
Method: as §1, §2, §3, §4, §5, §6

| SMILES | activity against weeds (weeds [1]) | activity against weeds (weeds [8]) | degree of damage to the plants (% damage vs untreated control), Poa (Poa; 60 g of ai./ha) | degree of damage, Echinochloa (Echinochloa; 60 g of ai./ha) | degree of damage to the plants (% damage vs untreated control), Ambrosia (Ambrosia; 60 g of ai./ha) | degree of damage, Gallium (Gallium; 60 g of ai./ha) | degree of damage to the plants (% damage vs untreated control), Maize (Maize [9]) | degree of damage to the plants (% damage vs untreated control), Lolium (Lolium [2]; 60 g of ai./ha) | degree of damage, Sorghum (Sorghum [3]; 60 g of ai./ha) | degree of damage to the plants (% damage vs untreated control), Sorghum (Sorghum [4]; 60 g of ai./ha) | degree of damage to the plants (% damage vs untreated control), Solanum (Solanum; 60 g of ai./ha) | degree of damage, Lolium (Lolium [5]; 60 g of ai./ha) | degree of damage, Amaranthus (Amaranthus; 60 g of ai./ha) | degree of damage to the plants (% damage vs untreated control), Matricaria (Matricaria [6]; 60 g of ai./ha) | degree of damage, Matricaria (Matricaria [7]; 60 g of ai./ha) | degree of damage, Digitaria (Digitaria; 60 g of ai./ha) | degree of damage, Stellaria (Stellaria; 60 g of ai./ha) | degree of damage to the plants (% damage vs untreated control), Soya beans (Soya beans) | also measured |
| --- | --- | --- | --- | --- | --- | --- | --- | --- | --- | --- | --- | --- | --- | --- | --- | --- | --- | --- | --- |
| CCCOc1nn(C(=O)[N-]S(=O)(=O)c2c(C)cccc2C(=O)OC)c(=O)n1C.[Na+] [Example 144] | very strong activity against weeds | very strong activity against weeds |  |  |  |  |  |  |  |  |  |  |  |  |  |  |  |  | degree of damage to the plants (% damage vs untreated control), Poa (Poa; 125 g of ai./ha): 90%; degree of damage, Echinochloa (Echinochloa; 250 g of ai./ha): 95%; degree of damage to the plants (% damage vs untreated control), Ambrosia (Ambrosia; 125 g of ai./ha): 80%; degree of damage, Gallium (Gallium; 250 g of ai./ha): 95%; degree of damage to the plants (% damage vs untreated control), Lolium (Lolium [2]; 125 g of ai./ha): 90%; degree of damage, Sorghum (Sorghum [3]; 250 g of ai./ha): 95%; degree of damage to the plants (% damage vs untreated control), Sorghum (Sorghum [4]; 125 g of ai./ha): 95%; degree of damage to the plants (% damage vs untreated control), Solanum (Solanum; 125 g of ai./ha): 95%; degree of damage, Lolium (Lolium [5]; 250 g of ai./ha): 70%; degree of damage, Amaranthus (Amaranthus; 250 g of ai./ha): 100%; degree of damage to the plants (% damage vs untreated control), Matricaria (Matricaria [6]; 125 g of ai./ha): 95%; degree of damage, Matricaria (Matricaria [7]; 250 g of ai./ha): 70%; degree of damage, Digitaria (Digitaria; 250 g of ai./ha): 95%; degree of damage, Stellaria (Stellaria; 250 g of ai./ha): 95% |
| CCOC(=O)c1scc(C)c1S(=O)(=O)NC(=O)n1nc(OCC)n(C2CC2)c1=O [Example 63] | very strong activity against weeds | very strong activity against weeds | 95% | 90% | 100% | 90% | 10% | 100% | 80% | 80% | 100% | 70% | 100% | 100% | 95% | 50% | 100% |  |  |
| CCSc1nn(C(=O)NS(=O)(=O)c2c(C)cccc2C(=O)OC)c(=O)n1C1CC1 [Example 159] | very strong activity against weeds | very strong activity against weeds |  | 80% |  | 95% | 10% |  | 70% |  |  | 60% | 95% |  | 100% | 60% | 100% |  | degree of damage to the plants (% damage vs untreated control), Poa (Poa; 30 g of ai./ha): 95%; degree of damage to the plants (% damage vs untreated control), Ambrosia (Ambrosia; 30 g of ai./ha): 95%; degree of damage to the plants (% damage vs untreated control), Lolium (Lolium [2]; 30 g of ai./ha): 90%; degree of damage to the plants (% damage vs untreated control), Sorghum (Sorghum [4]; 30 g of ai./ha): 60%; degree of damage to the plants (% damage vs untreated control), Solanum (Solanum; 30 g of ai./ha): 95%; degree of damage to the plants (% damage vs untreated control), Matricaria (Matricaria [6]; 30 g of ai./ha): 95% |
| CCCOc1nn(C(=O)NS(=O)(=O)c2c(C)cccc2C(=O)OC)c(=O)n1C [Example 140] | very strong activity against weeds | very strong activity against weeds |  |  |  |  |  |  |  |  |  |  |  |  |  |  |  | 10% | degree of damage to the plants (% damage vs untreated control), Poa (Poa; 30 g of ai./ha): 95%; degree of damage, Echinochloa (Echinochloa; 250 g of ai./ha): 90%; degree of damage to the plants (% damage vs untreated control), Ambrosia (Ambrosia; 30 g of ai./ha): 80%; degree of damage, Gallium (Gallium; 250 g of ai./ha): 95%; degree of damage, Sorghum (Sorghum [3]; 250 g of ai./ha): 95%; degree of damage to the plants (% damage vs untreated control), Sorghum (Sorghum [4]; 30 g of ai./ha): 95%; degree of damage to the plants (% damage vs untreated control), Solanum (Solanum; 30 g of ai./ha): 95%; degree of damage, Amaranthus (Amaranthus; 250 g of ai./ha): 100%; degree of damage to the plants (% damage vs untreated control), Matricaria (Matricaria [6]; 30 g of ai./ha): 80%; degree of damage, Matricaria (Matricaria [7]; 250 g of ai./ha): 90%; degree of damage, Digitaria (Digitaria; 250 g of ai./ha): 95%; degree of damage, Stellaria (Stellaria; 250 g of ai./ha): 70% |
| COC(=O)c1cccc(C)c1S(=O)(=O)NC(=O)n1nc(OC(C)C)n(C2CC2)c1=O [Example 166] | very strong activity against weeds | very strong activity against weeds |  | 70% |  | 95% | 40% |  | 90% |  |  | 50% | 95% |  | 100% | 70% | 95% |  | degree of damage to the plants (% damage vs untreated control), Poa (Poa; 15 g of ai./ha): 90%; degree of damage to the plants (% damage vs untreated control), Ambrosia (Ambrosia; 15 g of ai./ha): 80%; degree of damage to the plants (% damage vs untreated control), Lolium (Lolium [2]; 15 g of ai./ha): 90%; degree of damage to the plants (% damage vs untreated control), Sorghum (Sorghum [4]; 15 g of ai./ha): 70%; degree of damage to the plants (% damage vs untreated control), Solanum (Solanum; 15 g of ai./ha): 90%; degree of damage to the plants (% damage vs untreated control), Matricaria (Matricaria [6]; 15 g of ai./ha): 95% |
| CCOn1c(CC)nn(C(=O)NS(=O)(=O)c2c(C)csc2C(=O)OC)c1=O [Example 38] | very strong activity against weeds | very strong activity against weeds | 70% | 90% | 95% |  | 0% | 95% | 95% | 60% | 95% |  | 100% | 95% | 95% | 70% | 95% |  | degree of damage, Maize (Maize [10]): 10% |
| CCCOc1nn(C(=O)NS(=O)(=O)c2c(C)cccc2C(=O)OC)c(=O)n1C1CC1 [Example 165] | very strong activity against weeds | very strong activity against weeds |  | 80% |  | 95% | 0% |  | 90% |  |  | 50% | 95% |  | 95% | 50% | 95% | 10% | degree of damage to the plants (% damage vs untreated control), Poa (Poa; 8 g of ai./ha): 90%; degree of damage to the plants (% damage vs untreated control), Ambrosia (Ambrosia; 8 g of ai./ha): 80%; degree of damage to the plants (% damage vs untreated control), Sorghum (Sorghum [4]; 8 g of ai./ha): 70%; degree of damage to the plants (% damage vs untreated control), Solanum (Solanum; 8 g of ai./ha): 80%; degree of damage to the plants (% damage vs untreated control), Matricaria (Matricaria [6]; 8 g of ai./ha): 90% |
| COC(=O)c1cccc(C)c1S(=O)(=O)NC(=O)n1nc(OC)n(C2CC2)c1=O [Example 164] | very strong activity against weeds | very strong activity against weeds |  | 80% |  | 90% | 20% |  | 95% |  |  | 70% | 100% |  | 100% | 60% | 95% | 0% | degree of damage to the plants (% damage vs untreated control), Poa (Poa; 8 g of ai./ha): 95%; degree of damage to the plants (% damage vs untreated control), Ambrosia (Ambrosia; 8 g of ai./ha): 100%; degree of damage to the plants (% damage vs untreated control), Lolium (Lolium [2]; 8 g of ai./ha): 95%; degree of damage to the plants (% damage vs untreated control), Sorghum (Sorghum [4]; 8 g of ai./ha): 90%; degree of damage to the plants (% damage vs untreated control), Solanum (Solanum; 8 g of ai./ha): 95%; degree of damage to the plants (% damage vs untreated control), Matricaria (Matricaria [6]; 8 g of ai./ha): 70% |
| COC(=O)c1cccc(C)c1S(=O)(=O)NC(=O)n1nc(OC)n(C)c1=O [Example 162] | very strong activity against weeds | very strong activity against weeds | 95% | 80% | 80% |  |  | 95% | 80% | 90% | 95% | 90% |  | 95% | 60% | 70% | 90% | 0% |  |
